Test results from patent US6601010B1 (priority 2000, dated 2003).
Counter-ions that a name gives are not always drawn. Like-named read-outs stand apart in the source and are kept apart here.

Columns and labels:
[1] = system: unilaterally 6-hydroxydopamine lesioned and sham rats; assay: Rotational behavior induced by d-amphetamine in rats unilaterally lesioned with 6-hydroxydopamine (Parkinsonism model); format: in vivo, rat; details: d-amphetamine 3.0 mg/kg ip
Method: These rats met the same specifications as those used in Examples 1 and 2.
The apparatus was the force plate actometer with the cylindrical insert installed as depicted in FIG. 20. This insert presents the rat with a circular arena in which it can move. Note that neither harness nor tether was used. The rotations were calculated by the computer from the position coordinates derived from the force plate.
Rats were lesioned with the neurotoxin 6-hydroxydopamine. Surgery was performed under ketamine plus xylazine anesthesia. A Kopf stereotaxic instrument was used to guide the injection cannula to the substantia nigra pars compacta. A sham surgery group received the same surgical procedure but saline instead of toxin. About 2 weeks after surgery and at two week intervals rats received three separate injections of d-amphetamine (3.0 mg/kg, ip, 15 min prior to recording sessions). Data shown here were from one control rat and one lesioned rat for the third drug treatment. Data were analyzed with the OFFLINEP.PAS program (FIGS. 18A-18C).

[2] = system: BALB/c, C57BL/6 and CD-1 mice; assay: Mouse strain differences in response to daily treatment with d-amphetamine (force plate actometer); format: in vivo
Method: Male mice from Charles River Laboratories. BALB/c (n=32), C57BL/6 (n=32), and CD-1 (an outbred strain, n=32), were about 10 weeks old when the treatments began.
Four currently operating force plate chambers were used (the cylindrical insert was not present).
For each type of mouse, 4 dose groups were formed so that 8 mice of each strain received either saline, 1.0, 2.5 or 5.0 mg/kg d-amphetamine. On five consecutive days the mice received ip injections 1-2 min before being placed in the recording chambers for 30 min. Immediately before the drug session each mouse received a 30-min recording session preceded by a saline injection.
Data were analyzed with a version of OFFLINEP.PAS that divided the session into 9 intervals of 3 min and 24.8 s, instead of 45 frames as in the studies described in the preceding Examples. However, some graphic analyses were carried out with 45 frames. Analysis of variance was used to assess the effects of strain, dose, time within a session, and days of treatment (i.e., a 3×4×9×5 factorial design).

[3] = system: male Sprague-Dawley rats; assay: Instrument-scored stereotypies induced by d-amphetamine in rats (force plate actometer); format: in vivo, rat
Method: The subjects were male Sprague-Dawley rats about 4 months old at the time of the treatments. Nine rats received amphetamine injections and 8 separate rats got physiological saline injections. These rats weighed about 350 g each and were obtained from Harlan Co., Indianapolis, Ind.
The apparatus was four concurrently operating force plate actometers as described previously.
Rats in the amphetamine group were injected (ip.) with d-amphetamine sulfate 3.0 mg/kg 15 min before being placed in the chambers for 30 min of recording. Amphetamine injections were administered on three separate occasions spaced 2 weeks apart for each amphetamine group rat. Data from the 3rd session, when stereotypies were expected to be intense, were used for the analyses. Rats in the saline group received ip injections of physiological saline before recording sessions on three separate days. Data from the 3rd day were used for comparison with the amphetamine group.
Data were analyzed with the computer program OFFLINEP.PAS (FIGS. 18A-18C) and with additional techniques available in Systat. The program OFFLINEP.PAS identified bouts of low mobility, defined as periods of no locomotion outside of a 30 mm diameter circle for 10.24 s. Corresponding records of the force variation during the same time frame were stored so that the rhythmic components of behavior could be quantified with Fourier analysis. The basic concept was to define stereotypy as the intensity and rhythm of behavior occurring in “one place” under the influence of a stereotypy-inducing dose of amphetamine and to compare these measures to animals “staying in one place” but not under the influence of a drug.

[4] = system: BALB/c and C57BL/6 mice; assay: Wall rearing of mice counted by the force plate actometer algorithm; format: in vivo, mouse; details: amphetamine 2.5 mg/kg, 30-min session
Text: The preferred force plate actometer of this invention provides data that, when appropriately filtered and processed, provides estimates of the number of wall rears that an animal makes. This is of importance in pharmacology and behavioral genetics studies because some drugs are known to suppress rearing, and genetic endowment influences mouse rearing behavior. It is possible to detect wall rearing because when the mouse rears on hind legs and presses its forepaws against the side of the enclosure a substantial proportion of its body weight is transferred to the wall which is suspended above the force plate. […] Data from four chambers are concurrently expressed as the smoothed Fz values, and these are processed in a stream from the beginning of the session to the end of the session. The rears are quantified according to occurrence, intensity, duration of the rear, and time between the rears.
The program was validated by comparing the results from a human observer viewing video tapes taken from 30-min sessions of force plate recording for two mice: one BALB/c and one C57BL/6 mouse, two very genetically different mice. In terms of number of rears for the BALB/c mouse the video scored and computer scored wall rears were correlated +0.842 across 30 1-min blocks of the session. […]

[5] = system: CD-1, BALB/c and C57BL/6 mice; details: 2.0 g/kg ip; for locomotor stimulation during the first time block: versus saline control
Method: The subjects were 12 male mice of each of the three strains: CD-1, BALB/c, and C57BL/6 obtained from Charles River Laboratories.
The force plate actometer was used as described above.
The mice were subdivided into groups of 6 each. One group received saline, and the corresponding other group of that strain received a dose of 2.0 g/kg of ethanol in a 20% aqueous solution. This was the first exposure to the chamber for these mice. Within 1-2 min of the ip injection the mice were placed in the chamber and behavior was recorded for 30 min.
The distance data were divided into 6 blocks of 5 min each, and analysis of variance (3 strains×saline vs drug×6 time blocks) was used to establish the presence of effects.

[6] = system: male Sprague Dawley rats; assay: Quantification of harmaline-induced tremor in rats (force plate actometer); format: in vivo, rat
Method: Thirty-two male Sprague Dawley rats from Harlan Co, Indianapolis, Ind., were studied.
The apparatus was the force plate actometer, described above, with no adjustments or modifications. If one were to use the instrument primarily for tremor studies, it would be possible to “tune” it for such purposes. For example, sessions of recording shorter than 30 min may be preferred and a sampling rate of 100 Hz or more may be desirable.
The rats were divided into 4 separate groups of 8 rats each. Separate groups received different doses of Harmaline hydrochloride as follows: 0.0 (saline), 4.0, 8.0, and 16.0 mg/kg, ip, 1-2 minutes before being placed in the recording chamber.
Data from the 30-min sessions were broken into 45 equal-length intervals of 40.96 s (or 2048 samples at a sampling rate of 50 Hz). […] Then, a tremor index was computed for each power spectrum. The tremor index was the difference between the average power in the 0.02-4.980 Hz frequency band and the 5.005-15.015 Hz frequency band of each power spectrum. This calculation emphasizes the peaking of the spectrum in the 5-15 Hz frequency band regardless of the absolute power level of the spectrum. A session average of the tremor index was obtained for each rat. Dose-effects statistical analyses were performed with one-way analysis of variance.

[7] = 3.0 mg/kg ip, Fourier analysis, FIG. 3

## C[C@H](N)Cc1ccccc1 [amphetamine, d-amphetamine sulfate]
[1]; one 6-OHDA lesioned rat, FIG. 8
  rotational behavior, movement tracings: robust rotational behavior
[1]; one 6-OHDA lesioned rat, third treatment, FIG. 10
  rotations to the right in 30-min session: 62 rotations
[1]; one 6-OHDA lesioned rat, third treatment, FIG. 12
  bouts of high activity with low mobility (stereotypy score): four
[1]; one unlesioned control rat, FIG. 7
  locomotion, movement tracings: very little locomotion
[1]; one unlesioned control rat, frame 14 to end of session, FIG. 11
  stereotypy score: 250-300
[1]; one unlesioned control rat, third treatment, FIG. 9
  leftward rotations at the beginning of the session: 12 rotations
[2]; 2.5 mg/kg ip, CD-1, C57BL/6, BALB/c, FIG. 15
  distance traveled, ranking of strains: CD-1's were stimulated the most and the BALB/c's the least
[2]; BALB/c mouse, the two highest doses (2.5 and 5.0 mg/kg)
  spatial statistic, restriction of movements in space: greater tendency to restrict its movements in space
[2]; C57BL/6 mouse, 2.5 mg/kg ip
  distance traveled across the 5 treatment days: showed a sensitization effect
[2]; one C57BL/6 mouse, fifth injection of 5.0 mg/kg ip, FIG. 14 versus saline FIG. 13
  movement trajectories (locomotion): locomotor stimulating effect of the drug is apparent
[2]; three mouse strains, saline, 1.0, 2.5, 5.0 mg/kg ip, 5 days, ANOVA dose F(3,84)=73.787, p<0.001, strain-by-dose F(6,84)=9.293, p<0.001, FIG. 15
  distance traveled, effect of dose: significant effects
[2]; three mouse strains, saline, 1.0, 2.5, 5.0 mg/kg ip, ANOVA dose F(3,84)=38.192, p<0.001, strain-by-dose F(6,84)=4.991, p<0.001, FIG. 16
  spatial statistic (spatial index), effect of dose: significant effects
[3]; 3.0 mg/kg ip 15 min before 30-min session, 3rd injection, FIG. 1
  number of low mobility bouts per frame versus saline control: comparable amounts of low mobility bouts
[3]; 3.0 mg/kg ip, 3rd injection, FIG. 2
  stereotypy score (activity during low mobility bouts) versus saline control: very active
[3]; 3.0 mg/kg ip, 3rd injection, n=9
  visual observation of stereotypies on removal from the chamber: all nine rats were engaged in classical nose poking, sniffing, and head-weaving stereotypies
[3]; 3.0 mg/kg ip, FIG. 3 versus FIG. 4, controls show no 10-Hz peak
  difference in spectral power, amphetamine rats above saline controls: 10-20 db
[3]; [7]
  frequency range of strong rhythmicity in power spectra of low mobility bouts: 8-11 Hz
  low frequency power in power spectra of low mobility bouts: distinctive lack of low frequency power below about 0.5 Hz
[4]; BALB/c mice, untreated mean 92.5 rears
  mean number of wall rears: 3.75 rears/session
[4]; C57BL/6 mice, untreated mean 70.8 rears
  mean number of wall rears: 3.5 rears/session

## CCO [ethanol]
[5]; ANOVA F(2,30)=3.257, p=0.05
  distance traveled, strain-by-ethanol interaction: significant strain-by-ethanol interaction
[5]; ANOVA F(5,150)=7.629, p<0.001
  distance traveled, time-by-ethanol interaction: significant-time-by-ethanol interaction
[5]; BALB/c strain
  locomotor stimulation during the first time block: greater amount of ethanol related locomotor stimulation
[5]; BALB/c, early in session
  proportional increase in activity, BALB/c versus other strains: greatest proportional increase in activity
[5]; CD-1 strain
  locomotor stimulation during the first time block: least stimulation
[5]; three mouse strains, 30 min in 5-min blocks, FIG. 17
  distance traveled versus saline treated mice: initially stimulated

## COc1ccc2c3c([nH]c2c1)C(C)=NCC3.Cl [harmaline, Harmaline hydrochloride]
[6]; rats, 0, 4.0, 8.0, 16.0 mg/kg ip, session average, one-way ANOVA F (3,28)=5.090, p=0.006, FIG. 6
  effect of dose on tremor index: statistically significant
[6]; rats, 0-16.0 mg/kg ip, F(2,28)=3.222, p=0.038
  latency to the first bout of low mobility: significantly shortened
[6]; rats, 0-16.0 mg/kg ip, FIG. 6
  shape of the dose-effect function of the tremor index: log linear
[6]; rats, 0-16.0 mg/kg ip, same session, F(3,28)=6.514, p=0.002
  effect on locomotor activity: dose-relatedly suppressed locomotor activity
[6]; rats, the two higher doses (8.0 and 16.0 mg/kg ip), one rat per dose, FIG. 5
  peaking in the power spectra of Fz force: pronounced
